Test results as given in US10881642B2, “Autophagy enhancer and use thereof” (Industry-Academic Cooperation Foundation, Yonsei University, priority 2016, dated 2021).

What was measured:
[1] = tested on: HeLa cells; assay: Viability of Hela cells; type: cell-based; details: 50-100 μM, 48 hrs
Procedure: FIG. 10 is the result of the experiments using compound of formula 2 (hereinafter referred to as MSL-7) of the present disclosure as an autophagic enhancer. FIG. 10A is the result of immuneblot using the antibodies indicated using Hela cells treated with MSL or MSL-7. FIG. 10B is the result of measuring the viability of Hela cells treated with vehicle control or various concentration of MSL-7 (50-100 μM) for 48 hrs. FIG. 10C is the result of DAPI stained nuclei of TFEB-GFP HeLa cells which were treated with vehicle control or MSL-7 for 4 hrs. The graph indicates the percentage of TFEB translocated into the nuclei. Error bars, S.D. *, P<0.05; **, P<0.01; ***, P<0.001.
Screening of autophagy enhancer. […] Firefly luciferase was determined after mixing 5 μl of lysate with 25 μl of Luciferase Assay Reagent II. Renilla luciferase was then determined after further addition of 20 ul of Stop&Glo Reagent. […] Cytotoxicity was determined by the measurement of LDH release in cell culture media using the LDH kit (Roche), according to the protocol from the manufacturer. […] Imaging and image quantification. […] Formation of acidic vesicular organelles was quantitated by staining the cells with acridine orange (Invitrogen, 5 ug/ml, 10 min). […] Cells or tissues were solubilized in lysis buffer supplemented with protease and phosphatase inhibitors and protein concentration was measured by the Bradford method. […]

[2] = tested on: Hepa1c1c7 cells; assay: Lipid droplet clearance after PA and OA loading; type: cell-based

Structure (SMILES)	cellular toxicity [1]	lipid content in cells loaded with PA and OA [2]	content of lipid droplets stained BODIPY ([2]; PA and OA loaded, 16 h)
COc1oc(-c2ccccc2Cl)nc1S(=O)(=O)c1ccccc1 [MSL-7, 2-(2-chlorophenyl)-5-methoxy-4-(phenylsulfonyl) oxazole]	without cellular toxicity	–	–
CSc1oc(-c2ccccc2)nc1S(=O)(=O)c1ccc(F)cc1 [MSL]	–	significantly reduced	significantly decreased
